This passage reports IC50 results from US20240383911A1, “AZAINDAZOLE MACROCYCLE COMPOUNDS AND USES THEREOF” (BROADENBIO CO., LTD, priority 2021, published 2024).

The target in assay [1] is KDR (Homo sapiens, UniProt P35968). As to the kind of experiment: KDR kinase activity inhibition test (HTRF). The format is biochemical. The conditions noted are these: read-out: IC50, inhibitory effects on KDR kinase activity. The method, then:
(§1) Tested compounds: compounds prepared in the Examples of this invention.
(§2) Prepare compound stock solution: dissolve the test compound in 100% DMSO to make a 10 mM stock solution. Dilute the stock solution of the test compound by 5 times with 100% DMSO, make a 4-fold equal dilution in a 96-well dilution plate, add 1 μL of the compound to 39 μL of kinase reaction buffer (1×kinase buffer, 5 mM MgCl2, 1 mM DTT), and shake on a microplate shaker for 20 minutes. 4×Positive control (4 μL of positive compound solution of the starting concentration, add 196 μL of kinase buffer) and 4×negative control (4 μL of 100% DMSO, add 196 μL of kinase buffer).
(1) Use 1×kinase reaction buffer to prepare 2.5×KDR kinase solution (250 μM), transfer 2 μL of the kinase solution to the 384 reaction plate, and add 1 μL of the test compound solution of gradient concentration to the 384 reaction plate (Greiner, Cat #784075), centrifuge for 1 minute (1000 rpm), and incubate at 25° C. for 10 minutes.
(§3) (2) Use 1×kinase reaction buffer to prepare 2.5×TK-substrate-biotin (2.5 μM) and 2.5×ATP (2.5 μM), mix well, and add 2 μL of the TK-substrate-biotin/ATP solution to the 384 reaction plate, centrifuge for 30 seconds (1000 rpm), and incubate at 25° C. for 40 minutes.
(§4) (3) Use HTRF detection buffer to prepare 2×Sa-XL 665 (125 nM) and 1×TK-antibody-Cryptate. Add 5 μL of a mixture of Sa-XL 665 and TK-antibody-Cryptate solutions to each well, centrifuge for 30 seconds (1000 rpm), and react at room temperature for 1 hour.
(§5) (4) The fluorescence signal is read using a Biotek multi-function plate reader, and the IC50 (half inhibitory concentration) of the compound is obtained using a four-coefficient nonlinear fitting formula.
On the technique in general: TR-FRET usually uses a lanthanide donor and a delayed reading to cut background.

In assay [2] the target is T1, FLT3 (Homo sapiens, UniProt P36888).
T1 sequence (P36888 27-993): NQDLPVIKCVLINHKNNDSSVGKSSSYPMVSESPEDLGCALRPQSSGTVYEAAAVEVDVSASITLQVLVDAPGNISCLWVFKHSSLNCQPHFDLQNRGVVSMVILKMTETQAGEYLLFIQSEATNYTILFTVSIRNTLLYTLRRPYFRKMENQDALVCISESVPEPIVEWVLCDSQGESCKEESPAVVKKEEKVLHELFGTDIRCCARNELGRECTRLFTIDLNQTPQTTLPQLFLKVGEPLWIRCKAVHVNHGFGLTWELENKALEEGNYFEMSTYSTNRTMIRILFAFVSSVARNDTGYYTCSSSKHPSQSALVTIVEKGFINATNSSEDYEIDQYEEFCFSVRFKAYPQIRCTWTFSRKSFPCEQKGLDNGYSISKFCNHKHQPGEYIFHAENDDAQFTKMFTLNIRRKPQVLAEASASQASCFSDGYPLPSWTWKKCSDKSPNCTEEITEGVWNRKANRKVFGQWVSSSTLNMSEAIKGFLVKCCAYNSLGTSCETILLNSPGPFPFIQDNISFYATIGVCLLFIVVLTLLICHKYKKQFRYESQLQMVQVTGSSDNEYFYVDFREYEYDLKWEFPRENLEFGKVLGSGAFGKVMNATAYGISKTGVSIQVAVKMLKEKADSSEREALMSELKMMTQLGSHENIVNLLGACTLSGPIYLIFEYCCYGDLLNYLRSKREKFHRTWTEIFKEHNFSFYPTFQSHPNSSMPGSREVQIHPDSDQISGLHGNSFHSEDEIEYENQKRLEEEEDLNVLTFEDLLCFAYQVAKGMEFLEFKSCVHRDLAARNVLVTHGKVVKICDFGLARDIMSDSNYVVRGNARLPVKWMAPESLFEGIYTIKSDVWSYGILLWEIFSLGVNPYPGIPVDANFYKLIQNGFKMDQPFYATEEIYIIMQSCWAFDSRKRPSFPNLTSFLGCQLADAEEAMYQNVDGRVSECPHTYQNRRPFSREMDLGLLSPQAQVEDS
As to the kind of experiment: FLT3 kinase activity inhibition test (HTRF). Conditions: read-out: IC50, inhibitory effects on FLT3 kinase activity. The format is biochemical. The method, then:
as §1, §2
(1) Use 1×kinase reaction buffer to prepare 2.5×FLT3 kinase solution (160 μM), transfer 2 μL of the kinase solution to the 384 reaction plate, and add 1 μL of the test compound solution of gradient concentration to the 384 reaction plate (Greiner, Cat #784075), centrifuge for 1 minute (1000 rpm), and incubate at 25° C. for 10 minutes.
as §3, §4, §5

In assay [3] the test system is MV-4-11 cells. As to the kind of experiment: Detection of MV-4-11 cell activity (CellTiter-Glo). Format: cell-based. The conditions noted are these: Homo sapiens, MV4-11, 120 h, 5 days, CTG, read-out: IC50, inhibitory effects on MV-4-11 cell activity. The method, then:
The CellTiter-Glo (CTG) luminescence method was used to detect the effect of compounds on the activity of MV-4-11 cells.
Tested compounds: compound prepared in the Examples of the present invention.
Add 100 μL containing 20,000 MV-4-11 (human myeloid monocytic leukemia cells, from the Cell Bank of the Chinese Academy of Sciences, Cat. No. SCSP-5031) cell suspension to 96-well flat-bottom clear-bottomed cell plates (Corning, Cat #3603), and then add 100 μL of cell culture medium containing a series of concentrations of the compound to be tested, with a total volume of 200 μL per well. The final gradient concentrations of the compounds were 500 nM, 125 nM, 31.25 nM, 7.813 nM, 1.953 nM, 0.488 nM, 0.122 nM, 0.031 nM, and 0.008 nM, and the final DMSO content was 0.5%. Set cells with the cell culture medium containing 0.5% DMSO but without compounds as the 100% control; set the culture medium wells without cells as 0% background control. Incubate the cell plate in a humidified incubator at 37° C. and 5% CO2 for 5 days. After 5 days, take out the cell plate, centrifuge (1000 rpm) for 5 minutes, remove and discard 100 μL supernatant, add 100 μL CTG reagent (Promega, Cat #G7572) to each well, shake at room temperature for 10 minutes to promote cell lysis, and incubate at room temperature for 30 minutes to stabilize the luminescence signal. Use a microplate reader (Molecular Device, i3X) to read the Luminescent fluorescence value, use GraphPad Prism 5.0 software to analyze the original data, use nonlinear S-curve regression to fit the data to obtain the dose-effect curve (cell survival rate %), and calculate the IC50 value.

Each structure is given as a SMILES string.

Sequence of KDR (P35968 20-1356): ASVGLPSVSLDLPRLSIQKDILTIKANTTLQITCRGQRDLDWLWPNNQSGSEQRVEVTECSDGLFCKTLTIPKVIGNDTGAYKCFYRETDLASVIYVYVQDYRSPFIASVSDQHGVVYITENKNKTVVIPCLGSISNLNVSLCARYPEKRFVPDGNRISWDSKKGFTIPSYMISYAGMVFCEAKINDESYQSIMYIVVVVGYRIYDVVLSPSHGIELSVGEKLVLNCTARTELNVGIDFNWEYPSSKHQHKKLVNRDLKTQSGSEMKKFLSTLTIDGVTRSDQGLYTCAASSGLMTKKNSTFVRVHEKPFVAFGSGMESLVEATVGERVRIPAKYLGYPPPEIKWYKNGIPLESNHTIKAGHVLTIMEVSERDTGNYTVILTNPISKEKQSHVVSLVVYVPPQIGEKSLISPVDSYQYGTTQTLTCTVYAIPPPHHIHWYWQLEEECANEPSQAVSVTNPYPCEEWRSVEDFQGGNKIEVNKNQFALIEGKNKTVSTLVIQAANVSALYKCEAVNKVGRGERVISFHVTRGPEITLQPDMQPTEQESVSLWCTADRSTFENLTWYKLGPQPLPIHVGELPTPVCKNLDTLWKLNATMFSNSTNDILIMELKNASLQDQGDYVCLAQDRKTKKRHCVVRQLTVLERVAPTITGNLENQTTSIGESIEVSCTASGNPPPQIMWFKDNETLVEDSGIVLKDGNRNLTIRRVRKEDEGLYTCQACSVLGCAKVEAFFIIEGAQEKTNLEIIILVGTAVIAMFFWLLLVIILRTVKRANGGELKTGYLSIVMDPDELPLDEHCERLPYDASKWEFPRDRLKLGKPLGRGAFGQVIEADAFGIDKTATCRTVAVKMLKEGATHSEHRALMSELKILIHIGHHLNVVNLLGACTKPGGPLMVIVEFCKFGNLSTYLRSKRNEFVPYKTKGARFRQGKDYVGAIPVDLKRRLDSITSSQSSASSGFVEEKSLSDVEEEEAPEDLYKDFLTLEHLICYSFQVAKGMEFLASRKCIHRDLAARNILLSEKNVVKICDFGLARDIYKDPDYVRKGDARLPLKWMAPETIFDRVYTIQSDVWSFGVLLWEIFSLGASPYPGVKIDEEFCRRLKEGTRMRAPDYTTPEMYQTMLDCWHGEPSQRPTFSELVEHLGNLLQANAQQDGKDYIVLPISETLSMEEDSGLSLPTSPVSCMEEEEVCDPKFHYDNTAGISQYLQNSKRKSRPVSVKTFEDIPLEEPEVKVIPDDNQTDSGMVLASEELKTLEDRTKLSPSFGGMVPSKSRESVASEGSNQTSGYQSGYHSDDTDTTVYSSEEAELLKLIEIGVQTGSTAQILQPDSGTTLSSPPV

One may read the IC50 as the concentration that gives 50% inhibition. `CN1CCN(c2ncc3cc2OCCCOc2cccc(F)c2-c2cc4c-3n[nH]c4cn2)CC1` [Compound 3, 16-fluoro-5-(4-methylpiperazin-1-yl)-7,11-dioxa-4,19,22,23-tetraazapentacyclo[16.5.2.1^2,6.0^12,17.0^21,24]hexacosa-1(23),2(26),3,5,12,14,16,18,20,24-decaene]: the IC50 in assay [1] is 5 to 50 nM; in assay [2] it was 5 to 50 nM; in assay [3], 32 nM.

In the case of `CN1CCN(c2ccc3cc2OCCCOc2cccc(F)c2-c2cc4c-3n[nH]c4cn2)CC1` [Compound 6, 16-fluoro-5-(4-methylpiperazin-1-yl)-7,11-dioxa-19,22,23-triazapentacyclo[16.5.2.1^2,6.0^12,17.0^21,24]hexacosa-1(23),2(26),3,5,12,14,16,18,20,24-decaene], the half-inhibitory concentration (IC50) in assay [1] was ≤ 5 nM; in assay [2] it was ≤ 5 nM; in assay [3], 3.8 nM.

Take `CN1CCN(c2ccc3cc2OCCOCc2cccc(F)c2-c2cc4c-3n[nH]c4cn2)CC1` [Compound 9, 16-fluoro-5-(4-methylpiperazin-1-yl)-7,10-dioxa-19,22,23-triazapentacyclo[16.5.2.1^2,6.0^12,17.0^21,24]hexacosa-1(23),2(26),3,5,12,14,16,18,20,24-decaene]: the values for the IC50 in assay [1], in assay [2] and in assay [3] were ≤ 5 nM, ≤ 5 nM and 7 nM, respectively.
